Experimental data taken from US10117944B2, “Targeted therapeutics” (Madrigal Pharmaceuticals, Inc., priority 2014, dated 2018).

What was measured:
[1] = Stability of SDC-TRAPs in mouse plasma; assay type: in vitro ADME; settings: 37° C.
Procedure: SDC-TRAPs were incubated in mouse plasma for 1 h at 37° C. and assayed for integrity at 0, 0.25, 0.5 and 1 h to assess the stability of the SDC-TRAP, e.g., as compared to the effector and targeting compounds. Compound stability was determined using […].

HER2 = HER2 degradation assay with BT-474 cell line; assay type: cell-based, human; settings: BT-474 cells, overnight incubation
Procedure: BT-474 cells (human breast cancer cell line ATCC HTB-20) were obtained from ATCC and seeded into 12-well tissue culture plates at 0.2×10^6/1.8 mL/well. The cells were incubated for more than 6 hours at 37° C. in DMEM+10% FBS, +1% P/S, +1.5 g/L sodium bicarbonate. […] The DMSO final concentration was 0.2%. Cells were incubated overnight at 37° C. in 5% CO2.
Media was decanted from the plate, cells were washed 1× in PBS. 400 μL trypsin (EDTA) per well was added, and the cells were incubated for 2 to 3 minutes. Cells were collected into FACS tubes containing 1 ml culture medium to neutralize the trypsin and were centrifuged for 5 minutes at 1200 rpm. Supernatant was decanted and the cells were resuspended in 5 μL FITC (anti HER2/nu)/200 μL staining buffer (1×PBS+1% FBS+0.05% Sodium Azide)/tube. Controls were 5 μL IgG isotype control and staining buffer only. Tubes were incubated for 30 minutes in the dark at room temperature. 1 mL staining buffer was added to each tube and the tubes were centrifuged for 6 minutes at 1200 rpm. The supernatant was decanted and 300 μL staining buffer was added to each tube, which was stored at 4° C. for FACS (cytometer) analysis. The cytometer readout was normalized and the potency of each compound was evaluated with IC50 calculated with XLfit™ software.

[2] = estimated; cited from earlier work
[3] = phase I trial; cited from earlier work

Row | SMILES | % Remaining (1 h) [1] [%] | IC50 (HER2) [µM] | Patients presenting with peripheral neuropathy [2] | Dose at which dose-limiting toxic effects are observed [3] [mg/m^2]
1 | CCNC(=O)c1nnc(-c2cc(C(C)C)c(O)cc2O)n1-c1ccc(C(=O)N2CCC3(CC2)OB([C@H](CC(C)C)NC(=O)[C@H](Cc2ccccc2)NC(=O)c2cnccn2)OC3(C)C)cc1 [SDC-TRAP-0251, N—((S)-1-(((R)-1-(8-(4-(3-(2,4-dihydroxy-5-isopropylphenyl)-5-(ethylcarbamoyl)-4H-1,2,4-triazol-4-yl)benzoyl)-4,4-dimethyl-1,3-dioxa-8-aza-2-boraspiro[4.5]decan-2-yl)-3-methylbutyl)amino)-1-oxo-3-phenylpropan-2-yl)pyrazine-2-carboxamide] | 13.4 | > 5 |  | 
2 | CCNC(=O)c1nnc(-c2cc(C(C)C)c(O)cc2O)n1-c1ccc(C(=O)NCCCCCCC2(C)OB([C@H](CC(C)C)NC(=O)[C@H](Cc3ccccc3)NC(=O)c3cnccn3)OC2(C)C)cc1 (stereo partly drawn) [SDC-TRAP-0247, N-((2S)-1-(((1R)-1-(4-(6-(4-(3-(2,4-dihydroxy-5-isopropylphenyl)-5-(ethylcarbamoyl)-4H-1,2,4-triazol-4-yl)benzamido)hexyl)-4,5,5-trimethyl-1,3,2-dioxaborolan-2-yl)-3-methylbutyl)amino)-1-oxo-3-phenylpropan-2-yl)pyrazine-2-carboxamide] | 11.8 | 0.036 |  | 
3 | CC(C)C[C@H](NC(=O)[C@H](Cc1ccccc1)NC(=O)c1cnccn1)B1OC(C)(C)C(C)(c2ccc(C(=O)N3CCN(c4ccc(-n5c(O)nnc5-c5cc(C(C)C)c(O)cc5O)cc4)CC3)cc2)O1 (stereo partly drawn) [SDC-TRAP-0238, N-((2S)-1-(((1R)-1-(4-(4-(4-(4-(3-(2,4-dihydroxy-5-isopropylphenyl)-5-hydroxy-4H-1,2,4-triazol-4-yl)phenyl)piperazine-1-carbonyl)phenyl)-4,5,5-trimethyl-1,3,2-dioxaborolan-2-yl)-3-methylbutyl)amino)-1-oxo-3-phenylpropan-2-yl)pyrazine-2-carboxamide] | 24.0 | > 5 |  | 
4 | CC(C)C[C@H](NC(=O)[C@H](Cc1ccccc1)NC(=O)c1cnccn1)B1OC(C)(C)C(C)(c2ccc(C(=O)N3CCC(CCn4ccc5cc(-n6c(O)nnc6-c6cc(C(C)C)c(O)cc6O)ccc54)CC3)cc2)O1 (stereo partly drawn) [SDC-TRAP-0237, N-((2S)-1-(((1R)-1-(4-(4-(4-(2-(5-(3-(2,4-dihydroxy-5-isopropylphenyl)-5-hydroxy-4H-1,2,4-triazol-4-yl)-1H-indol-1-yl)ethyl)piperidine-1-carbonyl)phenyl)-4,5,5-trimethyl-1,3,2-dioxaborolan-2-yl)-3-methylbutyl)amino)-1-oxo-3-phenylpropan-2-yl)pyrazine-2-carboxamide] | 84.2 | > 5 |  | 
5 | CCNC(=O)c1nnc(-c2cc(C(C)C)c(O)cc2O)n1-c1ccc(C(=O)N(C)CC[C@]23OB([C@H](CC(C)C)NC(=O)[C@H](Cc4ccccc4)NC(=O)c4cnccn4)O[C@H]2C[C@H]2C[C@@H]3C2(C)C)cc1 [SDC-TRAP-0244, N—((S)-1-(((R)-1-((3aR,4R,6R,7aS)-3a-(2-(4-(3-(2,4-dihydroxy-5-isopropylphenyl)-5-(ethylcarbamoyl)-4H-1,2,4-triazol-4-yl)-N-methylbenzamido)ethyl)-5,5-dimethylhexahydro-4,6-methanobenzo[d][1,3,2]dioxaborol-2-yl)-3-methylbutyl)amino)-1-oxo-3-phenylpropan-2-yl)pyrazine-2-carboxamide] | 62.9 | 0.1 |  | 
6 | CC(C)C[C@H](NC(=O)[C@H](Cc1ccccc1)NC(=O)c1cnccn1)B(O)O [bortezomib] |  |  | more than 40% | 1.5
7 | CC(C)C[C@H](NC(=O)[C@H](Cc1ccccc1)NC(=O)c1cnccn1)B1OC(C)(C)C(C)(c2ccc(C(=O)N3CCN(Cc4ccc(-n5c(O)nnc5-c5cc(C(C)C)c(O)cc5O)cc4)CC3)cc2)O1 (stereo partly drawn) [SDC-TRAP-0236, N-((2S)-1-(((1R)-1-(4-(4-(4-(4-(3-(2,4-dihydroxy-5-isopropylphenyl)-5-hydroxy-4H-1,2,4-triazol-4-yl)benzyl)piperazine-1-carbonyl)phenyl)-4,5,5-trimethyl-1,3,2-dioxaborolan-2-yl)-3-methylbutyl)amino)-1-oxo-3-phenylpropan-2-yl)pyrazine-2-carboxamide] | 25.5 | 0.71 |  | 
8 | CCNC(=O)c1nnc(-c2cc(C(C)C)c(O)cc2O)n1-c1ccc(Oc2ccc(C(=O)NCCCCCCC3(C)OB([C@H](CC(C)C)NC(=O)[C@H](Cc4ccccc4)NC(=O)c4cnccn4)OC3(C)C)cc2)cc1 (stereo partly drawn) [SDC-TRAP-0246, N-((2S)-1-(((1R)-1-(4-(6-(4-(4-(3-(2,4-dihydroxy-5-isopropylphenyl)-5-(ethylcarbamoyl)-4H-1,2,4-triazol-4-yl)phenoxy)benzamido)hexyl)-4,5,5-trimethyl-1,3,2-dioxaborolan-2-yl)-3-methylbutyl)amino)-1-oxo-3-phenylpropan-2-yl)pyrazine-2-carboxamide] | 63.6 | 0.11 |  | 
